Results: patent US20230416329A1, “A PEPTIDE WITH DISULFIDE BONDS AND INHIBITORY ACTIVITY AGAINST SERINE PROTEASES, DERIVED HYBRID PEPTIDES THEREOF, AND USES THEREOF” (INSTITUTE OF MATERIA MEDICA , CHINESE ACADEMY OF MEDICAL …, priority 2020, published 2023)
Bridge positions count the residues as written; N and C are the ends. Peptide text beside a SMILES is read from it.

Experiments:
trypsin = target: T1, trypsin (Bos taurus, UniProt P00760); experiment: in vitro
T1 sequence (P00760 24-246): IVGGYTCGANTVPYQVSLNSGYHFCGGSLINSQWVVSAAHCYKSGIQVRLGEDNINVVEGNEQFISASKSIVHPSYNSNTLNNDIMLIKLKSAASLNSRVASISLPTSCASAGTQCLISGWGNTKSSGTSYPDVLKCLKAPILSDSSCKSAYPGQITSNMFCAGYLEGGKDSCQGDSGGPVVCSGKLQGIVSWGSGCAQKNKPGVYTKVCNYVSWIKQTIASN
Outline: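 Peptides were preincubated for 5 min at 37 °C and then digested with 0.05 μg/μL trypsin solution (stock). Remaining intact peptide was quantified as RP-HPLC peak area.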

chymotrypsin = chymotrypsin (Bos taurus, UniProt P00766); experiment: in vitro; conditions: for Remaining peak area (%)/chymotrypsin: 0 h; for remaining at 0.025 h, 60 μM / remaining at 0.05 h, 60 μM / remaining at 0.075 h, 60 μM / remaining at 0.1 h, 60 μM / remaining at 0.15 h, 60 μM / remaining at 0.25 h, 60 μM / remaining at 0.5 h, 60 μM / remaining at 1 h, 60 μM: isolated enzyme chymotrypsin, pH 7.8, Remaining peak area (%)/chymotrypsin
Outline: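 Peptide and 0.05 μg/μL chymotrypsin were preincubated at 37 °C for 5 min, then mixed. Aliquots taken from 1.5 up to 60.0 min were quenched with 10% TFA, and remaining peptide was measured as RP-HPLC peak area.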

elastase = elastase (Sus scrofa, UniProt P00772); experiment: in vitro
Procedure: FIG. 19. […] At different time point, 25 μL aliquots was taken out, and 10% (v/v) TFA was added to terminate the reaction.
(§1) Mix by centrifugation at 8000 rpm for 30 seconds.
Arrange a certain volume of 0.5 μg/μL elastase solution in another sterile EP. Incubate the EP tubes containing peptides and enzymes at 37° C. for 5 min, and then add 4.5 μL of elastase solution to each EP tube containing peptides and mix well. Start timing and remove 25 μL of reaction solution at 1.5, 3.0, 4.5, 6.0, 9.0, 15.0, 30.0, and 60.0 min later, respectively. Add 3.75 μL of 10% TFA to terminate the reaction and mix well by centrifugation at 8000 rpm for 30 seconds.
Referring to the experimental method in Example 5, in vitro stability of salmon Calcitonin analogs with oral administration activity to the enzymatic hydrolysis by trypsin, chymotrypsin and elastase were performed.
Referring to the experimental method in Example 5, in vitro stability of IL-17A inhibitory peptides towards the enzymatic hydrolysis by trypsin, chymotrypsin and elastase were performed.

DPP-IV = DPP-IV (Homo sapiens, UniProt P27487); experiment: Tolerance of GLP-1 and its analogues to DPP-IV (RP-HPLC remaining peak area); type: in vitro ADME; conditions: peptide 25 μM, DPP-IV 0.5 ng/μL, 37° C.
Procedure: as §1
(2) Arrange a certain volume of 0.005 μg/μL DPP-IV solution in another sterile EP.

NEP24.11 = NEP24.11 (Homo sapiens, UniProt P08473); experiment: Tolerance of GLP-1 and its analogues to NEP24.11 (RP-HPLC remaining peak area); type: in vitro ADME; conditions: peptide 30 μM, NEP24.11 1.0 ng/μL, 37° C.
Procedure: as §1
Arrange a certain volume of 0.04 μg/μL NEP24.11 enzyme solution in another sterile EP.

[1] = Stability of GLP-1 and its analogues in human serum; conditions: 25% (v/v) human serum
[2] = isolated enzyme trypsin, pH 7.8

elastase, sequence (P00772 27-266): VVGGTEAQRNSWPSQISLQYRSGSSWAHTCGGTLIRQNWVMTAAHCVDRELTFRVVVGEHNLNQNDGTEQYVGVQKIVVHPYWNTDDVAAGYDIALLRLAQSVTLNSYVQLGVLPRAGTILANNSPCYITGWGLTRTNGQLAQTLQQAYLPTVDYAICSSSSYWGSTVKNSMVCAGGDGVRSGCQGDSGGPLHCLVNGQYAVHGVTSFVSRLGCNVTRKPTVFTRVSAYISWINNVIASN
NEP24.11, sequence (P08473 whole entry): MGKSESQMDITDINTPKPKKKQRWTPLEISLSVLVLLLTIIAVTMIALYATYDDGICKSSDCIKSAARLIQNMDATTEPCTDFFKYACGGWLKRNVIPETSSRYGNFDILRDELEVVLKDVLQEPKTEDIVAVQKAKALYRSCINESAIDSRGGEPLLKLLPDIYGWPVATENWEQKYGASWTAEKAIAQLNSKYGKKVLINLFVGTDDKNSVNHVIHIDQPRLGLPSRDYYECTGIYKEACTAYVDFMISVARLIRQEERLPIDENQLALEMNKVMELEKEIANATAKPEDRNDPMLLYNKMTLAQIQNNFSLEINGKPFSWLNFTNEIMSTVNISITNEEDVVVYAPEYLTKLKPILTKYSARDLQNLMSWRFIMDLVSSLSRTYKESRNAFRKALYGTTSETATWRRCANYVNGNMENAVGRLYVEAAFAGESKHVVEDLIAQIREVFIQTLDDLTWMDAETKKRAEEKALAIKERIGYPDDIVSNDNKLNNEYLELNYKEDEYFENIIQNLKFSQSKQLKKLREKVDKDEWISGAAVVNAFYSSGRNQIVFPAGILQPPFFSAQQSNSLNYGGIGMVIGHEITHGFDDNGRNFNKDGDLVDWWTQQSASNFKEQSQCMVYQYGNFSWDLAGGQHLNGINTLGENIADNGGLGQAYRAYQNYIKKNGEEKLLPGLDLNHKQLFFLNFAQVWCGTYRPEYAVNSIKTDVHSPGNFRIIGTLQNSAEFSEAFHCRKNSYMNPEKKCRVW
DPP-IV, sequence (P27487 whole entry, species assumed): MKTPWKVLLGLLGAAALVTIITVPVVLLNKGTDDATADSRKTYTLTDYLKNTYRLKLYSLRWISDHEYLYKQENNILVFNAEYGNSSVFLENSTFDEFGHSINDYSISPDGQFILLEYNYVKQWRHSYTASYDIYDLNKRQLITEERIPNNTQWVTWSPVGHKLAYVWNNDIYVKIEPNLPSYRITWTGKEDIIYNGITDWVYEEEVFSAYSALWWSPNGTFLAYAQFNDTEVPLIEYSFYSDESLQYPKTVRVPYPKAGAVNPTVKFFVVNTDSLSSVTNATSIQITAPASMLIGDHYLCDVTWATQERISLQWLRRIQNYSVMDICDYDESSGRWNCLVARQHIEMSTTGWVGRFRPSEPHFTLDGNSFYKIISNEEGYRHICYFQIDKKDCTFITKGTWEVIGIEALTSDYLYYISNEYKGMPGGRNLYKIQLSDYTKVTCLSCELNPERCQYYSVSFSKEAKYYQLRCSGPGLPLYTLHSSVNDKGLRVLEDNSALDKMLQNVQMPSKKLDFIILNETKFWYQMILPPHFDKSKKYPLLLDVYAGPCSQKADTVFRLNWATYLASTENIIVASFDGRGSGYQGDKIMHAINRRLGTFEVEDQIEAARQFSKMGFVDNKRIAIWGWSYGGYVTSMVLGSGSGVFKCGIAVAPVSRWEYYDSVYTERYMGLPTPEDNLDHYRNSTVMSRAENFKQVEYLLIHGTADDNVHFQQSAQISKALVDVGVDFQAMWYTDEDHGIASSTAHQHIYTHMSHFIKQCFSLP

CC[C@H](C)[C@H](N)C(=O)N[C@@H](Cc1c[nH]cn1)C(=O)N[C@H](C(=O)N[C@H](C(=O)N[C@H](C(=O)N1CCC[C@H]1C(=O)N[C@@H](C)C(=O)N[C@@H](CC(=O)O)C(=O)N[C@@H](CC(C)C)C(=O)N[C@@H](Cc1c[nH]c2ccccc12)C(=O)N[C@@H](CC(=O)O)C(=O)N[C@@H](Cc1c[nH]c2ccccc12)C(=O)N[C@H](C(=O)N[C@@H](CC(N)=O)C(=O)O)[C@@H](C)CC)[C@@H](C)CC)[C@@H](C)O)C(C)C [17A, reference compound]
stability towards trypsin hydrolysis (in words) (trypsin): very stable towards trypsin
stability towards chymotrypsin hydrolysis (in words) (chymotrypsin): unstable towards chymotrypsin and elastase
Remaining peak area (%)/chymotrypsin (chymotrypsin): 100.0 ± 0.0%
remaining at 0.025 h, 60 μM (chymotrypsin): 68.8 ± 5.5%
remaining at 0.05 h, 60 μM (chymotrypsin): 59.2 ± 6.3%
remaining at 0.075 h, 60 μM (chymotrypsin): 46.2 ± 5.2%
remaining at 0.1 h, 60 μM (chymotrypsin): 41.4 ± 4.5%
remaining at 0.15 h, 60 μM (chymotrypsin): 24.3 ± 1.2%
stability towards elastase hydrolysis (in words) (elastase): unstable towards chymotrypsin and elastase

CC[C@H](C)[C@H](N)C(=O)N[C@@H](Cc1c[nH]cn1)C(=O)N[C@H](C(=O)N[C@H](C(=O)N[C@H](C(=O)N1CCC[C@H]1C(=O)N[C@@H](C)C(=O)N[C@@H](CC(=O)O)C(=O)N[C@@H](CC(C)C)C(=O)N[C@@H](Cc1c[nH]c2ccccc12)C(=O)N[C@@H](CC(=O)O)C(=O)N[C@@H](Cc1c[nH]c2ccccc12)C(=O)N[C@H](C(=O)N[C@@H](CC(N)=O)C(=O)NCC(=O)N[C@H](C(=O)N[C@H]1CSSC[C@@H](C(=O)N[C@@H](CCC(N)=O)C(=O)O)NC(=O)[C@H]([C@@H](C)CC)NC(=O)[C@@H]2CCCN2C(=O)[C@@H]2CCCN2C(=O)[C@H]([C@@H](C)CC)NC(=O)[C@H](CO)NC(=O)[C@H](C)NC(=O)[C@H]([C@@H](C)O)NC1=O)[C@@H](C)CC)[C@@H](C)CC)[C@@H](C)CC)[C@@H](C)O)C(C)C [17A-EC] (H-IHVTIPADLWDWINGICTASIPPICQ-OH; disulfide 17-25)
Remaining peak area (%)/chymotrypsin (chymotrypsin): 100.0 ± 0.0%
remaining at 0.025 h, 60 μM (chymotrypsin): 85.5%
remaining at 0.05 h, 60 μM (chymotrypsin): 93.8 ± 2.4%
remaining at 0.075 h, 60 μM (chymotrypsin): 89.6%
remaining at 0.1 h, 60 μM (chymotrypsin): 91.6 ± 5.3%
remaining at 0.25 h, 60 μM (chymotrypsin): 79.8 ± 2.6%
remaining at 0.5 h, 60 μM (chymotrypsin): 80.9%
remaining at 1 h, 60 μM (chymotrypsin): 68%
stability towards elastase hydrolysis (in words) (elastase): tolerated to the degradation of corresponding serine proteases

CC[C@H](C)[C@H](NC(=O)CNC(=O)[C@@H]1CCCN1C(=O)[C@@H](NC(=O)CNC(=O)[C@H](CO)NC(=O)CNC(=O)[C@@H](NC(=O)[C@H](CC(N)=O)NC(=O)[C@@H](NC(=O)[C@H](CCCNC(=N)N)NC(=O)[C@@H]1CCCN1C(=O)[C@H](Cc1ccc(O)cc1)NC(=O)[C@@H](NC(=O)[C@H](CCC(N)=O)NC(=O)[C@H](CC(C)C)NC(=O)[C@H](CCCCN)NC(=O)[C@H](Cc1c[nH]cn1)NC(=O)[C@H](C)NC(=O)[C@H](CCC(=O)O)NC(=O)[C@H](CCC(N)=O)NC(=O)[C@H](CO)NC(=O)[C@H](CC(C)C)NC(=O)[C@H](CCCCN)NC(=O)CNC(=O)[C@H](CC(C)C)NC(=O)CNC(=O)[C@@H]1CSSC[C@H](N)C(=O)N[C@@H](CO)C(=O)N[C@@H](CC(N)=O)C(=O)N[C@@H](CC(C)C)C(=O)N[C@@H](CO)C(=O)N[C@@H]([C@@H](C)O)C(=O)N1)[C@@H](C)O)[C@@H](C)O)[C@@H](C)O)[C@@H](C)O)C(=O)N[C@H]1CSSC[C@@H](C(=O)N[C@@H](CCC(N)=O)C(=O)O)NC(=O)[C@H]([C@@H](C)CC)NC(=O)[C@@H]2CCCN2C(=O)[C@@H]2CCCN2C(=O)[C@H]([C@@H](C)CC)NC(=O)[C@H](CO)NC(=O)[C@H](C)NC(=O)[C@H]([C@@H](C)O)NC1=O [Cal-EC]
stability towards chymotrypsin hydrolysis (in words) (chymotrypsin): certain tolerance to chymotrypsin
Remaining peak area (%)/chymotrypsin (chymotrypsin): 100.0 ± 0.0%
remaining at 0.025 h, 60 μM (chymotrypsin): 95.4%
remaining at 0.05 h, 60 μM (chymotrypsin): 31.3%
remaining at 0.1 h, 60 μM (chymotrypsin): 29.3 ± 1.4%
remaining at 0.15 h, 60 μM (chymotrypsin): 27.8 ± 0.2%
remaining at 0.25 h, 60 μM (chymotrypsin): 22.3%
remaining at 0.5 h, 60 μM (chymotrypsin): 21.4%
remaining at 1 h, 60 μM (chymotrypsin): 19.3%
stability towards elastase hydrolysis (in words) (elastase): resistant to the corresponding protease degradation

CC[C@H](C)[C@H](NC(=O)[C@H](Cc1ccccc1)NC(=O)[C@H](CCC(=O)O)NC(=O)[C@H](CCCCN)NC(=O)[C@H](C)NC(=O)[C@H](C)NC(=O)[C@H](CCC(N)=O)NC(=O)CNC(=O)[C@H](CCC(=O)O)NC(=O)[C@H](CC(C)C)NC(=O)[C@H](Cc1ccc(O)cc1)NC(=O)[C@H](CO)NC(=O)[C@H](CO)NC(=O)[C@@H](NC(=O)[C@H](CC(=O)O)NC(=O)[C@H](CO)NC(=O)[C@@H](NC(=O)[C@H](Cc1ccccc1)NC(=O)[C@@H](NC(=O)CNC(=O)[C@H](CCC(=O)O)NC(=O)[C@H](C)NC(=O)[C@H](Cc1c[nH]cn1)NC(=O)CNC(=O)CNC(=O)[C@@H](NC(=O)[C@@H]1CCCN1C(=O)[C@@H](NC(=O)CN)[C@@H](C)CC)[C@@H](C)CC)[C@@H](C)O)[C@@H](C)O)C(C)C)C(=O)N[C@@H](C)C(=O)N[C@@H](Cc1c[nH]c2ccccc12)C(=O)N[C@@H](CC(C)C)C(=O)N[C@H](C(=O)N[C@@H](CCCCN)C(=O)NCC(=O)N[C@@H](CCCNC(=N)N)C(=O)NCC(=O)NCC(=O)N[C@@H](CCCCN)C(=O)NCC(=O)N[C@H]1CSSC[C@@H](C(=O)N[C@@H](Cc2ccccc2)C(=O)O)NC(=O)[C@H]([C@@H](C)CC)NC(=O)[C@@H]2CCCN2C(=O)[C@@H]2CCCN2C(=O)[C@H]([C@@H](C)CC)NC(=O)[C@H](CO)NC(=O)[C@H](CCCCN)NC(=O)[C@H]([C@@H](C)O)NC(=O)[C@H](C)NC(=O)[C@H](CCCNC(=N)N)NC(=O)CNC1=O)C(C)C [D-GLP-1-BT9]
Remaining peak area (%)/DPP-IV (DPP-IV; 0.0 h): 100.0 ± 0.0%
remaining at 0.5 h, 25 μM (DPP-IV; isolated DPP-IV enzyme in buffer, pH 8, 0.5 h): 101 ± 1.2%
remaining at 2 h, 25 μM (DPP-IV; isolated DPP-IV enzyme in buffer, pH 8, 2.0 h): 98.7 ± 0.6%
remaining at 4 h, 25 μM (DPP-IV; isolated DPP-IV enzyme in buffer, pH 8, 4.0 h): 98.8 ± 2.3%
remaining at 8 h, 25 μM (DPP-IV; isolated DPP-IV enzyme in buffer, pH 8, 8.0 h): 100 ± 6.5%
remaining at 12 h, 25 μM (DPP-IV; isolated DPP-IV enzyme in buffer, pH 8, 12.0 h): 94 ± 2%
Remaining peak area (%)/NEP24.11 (NEP24.11; 0.0 h): 100.0 ± 0.0%
remaining at 0.5 h, 30 μM (NEP24.11; isolated NEP24.11 enzyme in buffer, pH 7.4, 0.5 h): 88.4 ± 2.3%
remaining at 2 h, 30 μM (NEP24.11; isolated NEP24.11 enzyme in buffer, pH 7.4, 2.0 h): 79.3 ± 2.6%
remaining at 4 h, 30 μM (NEP24.11; isolated NEP24.11 enzyme in buffer, pH 7.4, 4.0 h): 69.8 ± 2.6%
remaining at 8 h, 30 μM (NEP24.11; isolated NEP24.11 enzyme in buffer, pH 7.4, 8.0 h, read-out: Remaining peak area (%)/NEP24.11): 58.6 ± 0.7%
remaining at 0.025 h, 60 μM (trypsin; [2]): 90.3 ± 1.9%
remaining at 0.05 h, 60 μM (trypsin; [2]): 92.2 ± 3.7%
remaining at 0.075 h, 60 μM (trypsin; [2]): 97.3 ± 1%
remaining at 0.1 h, 60 μM (trypsin; [2]): 94 ± 1.5%
remaining at 0.15 h, 60 μM (trypsin; [2]): 94.9 ± 1.8%
remaining at 0.25 h, 60 μM (trypsin; [2]): 88.7 ± 3%
remaining at 0.5 h, 60 μM (trypsin; [2]): 90.8 ± 3.6%
remaining at 1 h, 60 μM (trypsin; [2]): 88.4 ± 3.9%
remaining at 0.025 h, 60 μM (chymotrypsin): 54.9 ± 3.8%
remaining at 0.05 h, 60 μM (chymotrypsin): 43.3 ± 7%
remaining at 0.075 h, 60 μM (chymotrypsin): 34.5 ± 7.4%
remaining at 0.1 h, 60 μM (chymotrypsin): 27.1 ± 2.9%
remaining at 0.15 h, 60 μM (chymotrypsin): 17.4 ± 4.9%
Remaining peak area (%)/human serum ([1]; 0.0 h, peptide 0.03 mM, 37° C.): 100.0 ± 0.0%
serum stability (in words) [1]: good serum stability
remaining at 0.5 h, 0.03 mM ([1]; human, pH 7): 80.4 ± 4%
remaining at 2 h, 0.03 mM ([1]; human, pH 7): 53.6 ± 7.6%
remaining at 4 h, 0.03 mM ([1]; human, pH 7): 46.5 ± 3.5%
remaining at 8 h, 0.03 mM ([1]; human, pH 7): 7.2 ± 1.3%
remaining at 12 h, 0.03 mM ([1]; human, pH 7): 9.1 ± 3.9%
